How the values were obtained:
MC3T3-E1 cells = assay: Centrifugation cell adhesion assay on ligand-tethered SAMs; assay type: cell-based, murine
Experimental: MC3T3-E1 murine immature osteoblast-like cells (Riken Cell Bank, Hirosawa, Japan) were used because of their expression of multiple integrins, including alpha5beta1, alpha2beta1, and alphaVbeta3. Cells were maintained at 37° C. in α-MEM supplemented with 10% FBS and 1% penicillin-streptomycin and passaged every 2-3 days via standard culture techniques.
Self-assembled monolayers (SAMs) of alkanethiols on gold were used to present well-defined, ordered surfaces with anchoring groups within a non-fouling background. Tri(ethylene glycol)-terminated alkanethiol (HS—(CH2)11—(OCH2CH2)3—OH; EG3) and carboxylic acid-terminated alkanethiol (HS—(CH2)11—(OCH2CH2)6—OCH2COOH; EG6-COOH) were previously synthesized and characterized. Gold-coated substrates were prepared by sequential deposition of titanium (100 Å) and gold (200 Å) films via an electron beam evaporator (Thermionics Laboratories, Hayward, Calif., 2×10^−6 Torr, 1 A/s) onto clean 6-well plate lids or glass coverslips. Mixed SAM surfaces were prepared on substrates by immersing in a 1.0 mM mixed solution of EG3/EG6-COOH thiols (4 h). Peptide ligands were tethered using standard peptide chemistry. Briefly, following washing in ethanol and ultrapure H2O, SAMs were incubated in 2.0 mM EDC and 5.0 mM NHS in 0.1 M 2-(N-morpho)-ethanesulfonic acid and 0.5 M NaCl (pH 6.0), and subsequently immersed in a 20 mM solution of 2-mercaptoethanol in deionized H2O. Adhesive ligands in PBS were then incubated on the activated supports for 30 min and the unreacted surface NHS esters were then quenched in 20 mM glycine. Finally, the surfaces were blocked in 1% heat-denatured bovine serum albumin (BSA) and then incubated overnight in DPBS to reduce nonspecific protein adsorption.
A modification of a centrifugation assay was used to apply controlled detachment forces to cells adhering to engineered surfaces. Multi-wells of engineered surfaces were created on gold-coated polystyrene plate lids using silicone gaskets (Grace Bio-Labs, Bend, Oreg.). Mixed SAMs were assembled and ligands tethered at varying densities. MC3T3-E1 cells were labeled with […] calcein-AM, a membrane-permeable green fluorescent dye, in 2 mM dextrose-DPBS for 30 min and resuspended in α-MEM with 10% FBS. Cells were seeded onto the surfaces at 200 cells/mm^2, and allowed to attach for 1 h at 37° C. For blocking antibody experiments, cells were incubated in the presence of function-perturbing antibodies (10 μg/ml) for 10 min with gentle agitation prior to cell seeding. Before centrifugation, cell images were taken using a Nikon TE-300 fluorescence microscope and Spot RT digital camera. Wells were then filled completely with dextrose-PBS, sealed, inverted, and centrifuged for 5 min at a prescribed speed on a Beckman Allegra 6 centrifuge (GH 3.8 rotor) to apply normal detachment forces. Media was then gently aspirated from the wells, and wells were refilled for post-spin image collection. Post/pre-spin cell ratios were determined by image analysis, and this adhesive fraction was plotted against ligand surface density to obtain cell adhesion profiles.

[1] = system: HFN7.1 monoclonal antibody; assay: ELISA with HFN7.1 monoclonal antibody; assay type: binding; details: passively adsorbed ligands, various coating concentrations
Experimental: An ELISA was used to probe for the biological activity of the FNIII7-10 fragment compared to pFN. FNIII7-10 or pFN was adsorbed onto either uncoated or Neutravidin-coated (100 μg/ml) 96-well black U-well Dynex plates at various concentrations for 30 min. Following incubation in blocking buffer (0.25% BSA, 0.1 M EDTA, 2.5% Tween-20, 0.00125% NaN3), HFN7.1 antibody (0.6 μg/ml in blocking buffer) was added for 1 h at 37° C., and, after washing with blocking buffer, surfaces were incubated in alkaline phosphatase-conjugated anti-mouse IgG (0.6 μg/ml) for 1 h at 37° C. Washed surfaces were exposed to 4-methylumbelliferyl phosphate (25 mg/ml in 10 mM diethanolamine, pH 9.5). The resulting fluorescence was quantified using an HTS 7000 Plus plate reader (Perkin Elmer, Foster City, Calif.) at 360 nm excitation and 465 nm emission.

rat tibia cortical bone = assay: Rat tibia cortical bone implantation, histology and bone-implant contact histomorphometry; assay type: in vivo; details: 4 weeks
Experimental: Commercially pure titanium implants (FIG. 4) were sonicated in de-ionized water for 20 min to remove surface debris. Implants were then dipped in 4% HF for 30 sec to remove the existing oxide layer and then incubated in 35% HNO3 for 30 min at 50° C. to regenerate a new oxide coating. Samples were transferred to 1.8 N NaOH for 1 min to terminate the oxidation reaction. Implants were then rinsed and boiled in de-ionized water for 1 h. To create the bioactive coating, the implants were incubated in 20 μg/ml GFOGER peptide (SEQ ID NO:1) or type I collagen solution for 1 h. Control titanium rods were incubated in PBS.
Implantations were conducted in accordance with an IACUC-approved protocol. Both hind legs of anesthetized, mature Sprague-Dawley male rats (250-350 g) were shaved and scrubbed with alcohol. The medial aspect of the proximal tibial metaphysis was exposed through an antero-medial skin incision, leaving the medial collateral ligament intact. Using a saline-cooled drill, two defects were created in each tibia. Sterile implant rods were press fit into the defects. Periosteum was mobilized and sutured over the implantation site, and the skin was closed with wound clips. Subjects were euthanized after 4 weeks and proximal tibiae were fixed in neutral buffered formalin for histology or recovered without fixation and maintained in PBS-moistened gauze for immediate mechanical testing.
Excised tibiae were fixed in 10% neutral buffered formalin for 1 week. […] Ground sections of 50-80 μm were generated using the Exakt Grinding System™. Two longitudinal ground sections were generated per tibia, each containing two titanium plugs inserted transverse to the tibia's long axis. Sections were then stained with Sanderson's Rapid Bone Stain™ and a van Gieson counter stain. Bone implant contact (BIC) was measured as the percentage of implant's circumference that was in direct contact with bone tissue (Adobe Photoshop® CS imaging software).
To evaluate the performance of the bioactive GFOGER peptide (SEQ ID NO:1) treatment in vivo, osseointegration in a rat tibia cortical bone model was quantified using quantitative histomorphometry and pull-out mechanical testing. A cylindrical titanium implant rod with a tapered stop collar was designed (FIG. 4). The tapered head ensures that all implants are inserted into the bone at the same depth, guaranteeing uniform bone contact among treatments. Using a saline-cooled drill, two defects 2 mm in diameter were created in the medial aspect of the proximal tibial metaphysis. Implant rods consisting of GFOGER peptide (SEQ ID NO:1) functionalized or untreated (control) titanium were press fit into the cortical defects. After four weeks, the rat tibiae were harvested and evaluated for bone apposition by histological staining and mechanical integration by pull-out testing. […] Representative micrographs show 50-80 μm longitudinal ground sections of rat tibia stained with Sanderson's Rapid Bone Stain™ and van Gieson counterstain. Cells stain dark to light blue, soft tissue elements stain blue-green, and bone matrix stains yellow orange to autumn orange.
Osseointegration of implants in a rat tibia cortical bone model was quantified to evaluate the in vivo performance of the engineered titanium surfaces in bone healing. Importantly, this in vivo model provides a rigorous platform to evaluate implant coating function in a relevant orthopaedic setting. Two 2.0-mm diameter defects were drilled into the medial aspect of the proximal tibial metaphysis using a saline cooled drill. Tapered cylindrical implants (FIG. 4) of clinical-grade titanium were press-fit into the cortical defects.

For “GRGDG13PHSRN (GRGDGGGGGGGGGGGGGPHSRN) [RGD-PHSRN]”, which “ADH50 (ligand density required for half-maximal adhesion)” value (MC3T3-E1 cells; ligand tethered to SAMs, MC3T3-E1) is on record?
Its value is 1950 fmol/cm^2.

And the “adhesion with blocking antibodies against α5β1 integrin” value (MC3T3-E1 cells; maximum ligand density, normalized to unblocked controls)?
Its value is “only slightly reduced adhesion”.

“pFN: human plasma fibronectin obtained from Invitrogen” was tested. Which “HFN7.1 binding (biological activity)” value [1] did it give?
The value was “increased with protein coating concentration”.

Which “bone apposition (bone implant contact, BIC)” value (rat tibia cortical bone; passively coated implants vs untreated titanium) does the source give for “type I collagen: native type I collagen coating on titanium implants” here?
The value was “COL>Ti”.

What about the “histology: peri-implant bone mineral” value (rat tibia cortical bone; passively coated titanium implants (20 μg/ml)) of the same substance?
Its value is “Less bone mineral was visible”.
